Results reported in patent publication US20250059139A1, “COMPOUNDS FOR TREATMENT OF CANCER” (THE JOHNS HOPKINS UNIVERSITY, priority 2021, published 2025).

How the values were obtained:
Water solubility = format: physicochemical
[1] = biological target: T1, fl-R681A/R798A double mutant HDAC4 (Homo sapiens, UniProt P56524, R681A/R798A); assay: SPR binding of fl-R681A/R798A double mutant HDAC4 to immobilized TasQ; conditions: TasQ in solution
T1 construct: Full-length (fl) [A.A. 1-1082] recombinant human histone deacetylase 4 (rhHDAC4) protein; FLAG (N); GST (given as 'with or without'); made in house; host or cells: HEK293-T
Protocol: (§1) Surface Plasmon Resonance (SPR) Binding Analysis. SPR analysis was performed on the Biacore 3000™ system using CM5 sensor chips, certified buffers (HBS-P—10 mM HEPES, 0.15 M NaCl, pH 7.4, containing 0.005% v/v Surfactant P; HBS-EP-HBS-P with 3 mM EDTA) and reagents for immobilization and surface regeneration from Biacore, GE Healthcare, Uppsala Sweden. Evaluation of sensorgrams was performed using the BIA-evaluation Software version 4.1 and GraphPad Prism 4. Buffer of protein reagents were changed to HBS-P on Zeba spin desalting columns (Thermo Scientific) prior to being used in SPR analysis (Isaacs 2013).
A. Binding of wild-type and mutant forms of HDAC4 to immobilized TasQ. TasQ (ABR-215050; mol wt 406.4) was dissolved as a 40 mM solution in water with 1.5 equivalents of NaOH. TasQ with an amino-linker [i.e. —(CH2)2O(CH2)2—NH2](ABR-225180) in amide nitrogen position was used for amine coupling on to a Biacore CM5 sensor chip. A 1 mg/mL solution of ABR-225180 in HBS-P buffer was prepared and immobilized on a CM5 chip by injection at a flow rate of 5 or 10 μL/min until a stable response level was reached. Interaction of various HDAC4 forms with immobilized TasQ was studied by injection over this surface in HBS-P buffer containing 10 or 20 μM ZnCl2. Bound HDAC4 was removed by a pulse of 3 mM EDTA in HBS-P or 0.5 to 6.25 mM NaOH in water. […]

fl-NCoR1 = biological target: T2, fl-NCoR1 (Homo sapiens, UniProt O75376); assay: SPR binding of TasQ to immobilized fl-NCoR1; conditions: compound in solution
T2 construct: (N-terminal FLAG-tagged; AA 1-2440); FLAG (N); purchased Abcam ab82239
Protocol: as §1
B. Binding of TasQ to immobilized HDAC4 and NCoR1. Different variants of HDAC4 (full-length wild-type and mutant forms and the truncated protein) and full-length NCoR1 were immobilized on a CM5 chip using random amine coupling. Briefly, proteins were dissolved in 10 mM sodium acetate buffer at pH 5.0 or 5.5 and immobilized to the aimed level using the standard protocol from GE Healthcare. Serially diluted TasQ in HBS-P buffer with 10 or 20 μM Zn was injected (for 2 or 3 min at a flow rate of 30 μl/min) either directly or after a 1st injection of 1 mM DTT to reduce cysteines in the zinc conformation site in HDAC4. Regeneration was made with a short pulse of HBS-EP.
Thus, TasQ's inhibition of HDAC4/NCoR1 formation involves only its binding to HDAC4. […]

fl-HDAC4 = biological target: T3, fl-HDAC4 (Homo sapiens, UniProt P56524); assay: HDAC4 enzymatic assay with Lys(Tfa)-AMC substrate; format: biochemical
T3 construct: Full-length (fl) [A.A. 1-1082] recombinant human histone deacetylase 4 (rhHDAC4) protein; FLAG (N); GST (given as 'with or without'); made in house; host or cells: HEK293-T
Protocol: HDAC4 Enzymatic Assay. HDAC4 activity of the various recombinant forms used through these studies was assayed using the small non-protein Lys(Tfa)-AMC as described previously (Bottomley et al. J. Biol. Chem. 2008, 283:26694-26704). The specificity of this assay is documented via its inhibition by a small molecule trifluoroacetylthiophene-trifluoromethylketone derivative (TFT-PIP) described previously (id.).
Thus, TasQ's inhibition of HDAC4/NCoR1 formation involves only its binding to HDAC4. To resolve whether such TasQ binding involves the ZCD vs. ZRD in HDAC4, we took advantage of the fact that while HDAC4 has only marginal deacetylase activity against acetylated lysine-containing proteins, it can deacetylate a small non-protein trifluoroacetamide substrate (a.k.a., Lys(Tfa)-AMC). This reaction is inhibited by a small molecule trifluoroacetylthiophene-trifluoromethylketone derivative [a.k.a., TFT-PIP (FIG. 16)] due to its binding to the catalytic Zn^2+ in the ZCD, which locks the ZRD in the open conformation (Bottomley 2008).

[2] = test system: AHR protein in LNCaP cells; assay: AHR translocation and downregulation in LNCaP cells (immunoblot); format: cell-based, human; conditions: TasQ 10 μM
Protocol: Western Blot Analysis. Analysis and quantification of protein expression via immunoblot was performed as previously described (Brennen 2021). All assays were performed with total cell lysates from an equal number (i.e., 100,000) of cells loaded per lane for accurate comparisons across cell lines and conditions.

CYP1A1 = CYP1A1 mRNA induction in LNCaP cells (RT-PCR); format: cell-based; conditions: human, read-out: EC50 as a CYP1A inducer in LNCaP cells
Text: Real-time quantitative PCR (Q-PCR) analysis. […] ID NO: 2) and […] ID NO: 3). […] ID NO: 4) and […] ID NO: 5).

T1 sequence (P56524 whole entry R681A/R798A): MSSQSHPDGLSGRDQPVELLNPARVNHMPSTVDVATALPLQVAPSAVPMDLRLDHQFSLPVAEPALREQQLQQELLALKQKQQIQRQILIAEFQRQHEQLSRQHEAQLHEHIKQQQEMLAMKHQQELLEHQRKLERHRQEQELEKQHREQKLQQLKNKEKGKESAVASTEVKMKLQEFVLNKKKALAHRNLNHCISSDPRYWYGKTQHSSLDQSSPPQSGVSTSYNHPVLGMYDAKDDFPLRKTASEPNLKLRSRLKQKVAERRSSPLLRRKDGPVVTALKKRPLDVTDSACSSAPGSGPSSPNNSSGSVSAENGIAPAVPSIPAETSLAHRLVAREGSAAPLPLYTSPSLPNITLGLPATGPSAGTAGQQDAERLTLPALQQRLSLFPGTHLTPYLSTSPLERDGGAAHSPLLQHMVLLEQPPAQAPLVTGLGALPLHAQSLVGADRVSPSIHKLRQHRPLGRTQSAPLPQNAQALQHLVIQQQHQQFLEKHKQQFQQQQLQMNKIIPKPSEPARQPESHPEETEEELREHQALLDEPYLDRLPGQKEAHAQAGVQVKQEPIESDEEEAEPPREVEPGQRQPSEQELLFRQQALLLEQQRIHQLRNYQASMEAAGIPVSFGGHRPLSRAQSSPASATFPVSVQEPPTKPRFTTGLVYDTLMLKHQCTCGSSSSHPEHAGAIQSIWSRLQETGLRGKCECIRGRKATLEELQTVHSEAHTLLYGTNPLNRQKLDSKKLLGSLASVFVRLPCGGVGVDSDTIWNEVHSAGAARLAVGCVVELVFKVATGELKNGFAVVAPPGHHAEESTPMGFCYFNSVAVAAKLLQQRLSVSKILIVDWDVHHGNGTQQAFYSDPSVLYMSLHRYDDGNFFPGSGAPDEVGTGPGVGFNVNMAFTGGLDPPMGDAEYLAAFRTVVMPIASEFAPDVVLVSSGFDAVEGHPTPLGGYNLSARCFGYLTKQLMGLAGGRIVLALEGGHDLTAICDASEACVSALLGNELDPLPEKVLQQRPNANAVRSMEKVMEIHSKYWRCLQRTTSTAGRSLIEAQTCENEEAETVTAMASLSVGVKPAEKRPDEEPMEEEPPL
T2 sequence (O75376 whole entry, the tested form may be a part): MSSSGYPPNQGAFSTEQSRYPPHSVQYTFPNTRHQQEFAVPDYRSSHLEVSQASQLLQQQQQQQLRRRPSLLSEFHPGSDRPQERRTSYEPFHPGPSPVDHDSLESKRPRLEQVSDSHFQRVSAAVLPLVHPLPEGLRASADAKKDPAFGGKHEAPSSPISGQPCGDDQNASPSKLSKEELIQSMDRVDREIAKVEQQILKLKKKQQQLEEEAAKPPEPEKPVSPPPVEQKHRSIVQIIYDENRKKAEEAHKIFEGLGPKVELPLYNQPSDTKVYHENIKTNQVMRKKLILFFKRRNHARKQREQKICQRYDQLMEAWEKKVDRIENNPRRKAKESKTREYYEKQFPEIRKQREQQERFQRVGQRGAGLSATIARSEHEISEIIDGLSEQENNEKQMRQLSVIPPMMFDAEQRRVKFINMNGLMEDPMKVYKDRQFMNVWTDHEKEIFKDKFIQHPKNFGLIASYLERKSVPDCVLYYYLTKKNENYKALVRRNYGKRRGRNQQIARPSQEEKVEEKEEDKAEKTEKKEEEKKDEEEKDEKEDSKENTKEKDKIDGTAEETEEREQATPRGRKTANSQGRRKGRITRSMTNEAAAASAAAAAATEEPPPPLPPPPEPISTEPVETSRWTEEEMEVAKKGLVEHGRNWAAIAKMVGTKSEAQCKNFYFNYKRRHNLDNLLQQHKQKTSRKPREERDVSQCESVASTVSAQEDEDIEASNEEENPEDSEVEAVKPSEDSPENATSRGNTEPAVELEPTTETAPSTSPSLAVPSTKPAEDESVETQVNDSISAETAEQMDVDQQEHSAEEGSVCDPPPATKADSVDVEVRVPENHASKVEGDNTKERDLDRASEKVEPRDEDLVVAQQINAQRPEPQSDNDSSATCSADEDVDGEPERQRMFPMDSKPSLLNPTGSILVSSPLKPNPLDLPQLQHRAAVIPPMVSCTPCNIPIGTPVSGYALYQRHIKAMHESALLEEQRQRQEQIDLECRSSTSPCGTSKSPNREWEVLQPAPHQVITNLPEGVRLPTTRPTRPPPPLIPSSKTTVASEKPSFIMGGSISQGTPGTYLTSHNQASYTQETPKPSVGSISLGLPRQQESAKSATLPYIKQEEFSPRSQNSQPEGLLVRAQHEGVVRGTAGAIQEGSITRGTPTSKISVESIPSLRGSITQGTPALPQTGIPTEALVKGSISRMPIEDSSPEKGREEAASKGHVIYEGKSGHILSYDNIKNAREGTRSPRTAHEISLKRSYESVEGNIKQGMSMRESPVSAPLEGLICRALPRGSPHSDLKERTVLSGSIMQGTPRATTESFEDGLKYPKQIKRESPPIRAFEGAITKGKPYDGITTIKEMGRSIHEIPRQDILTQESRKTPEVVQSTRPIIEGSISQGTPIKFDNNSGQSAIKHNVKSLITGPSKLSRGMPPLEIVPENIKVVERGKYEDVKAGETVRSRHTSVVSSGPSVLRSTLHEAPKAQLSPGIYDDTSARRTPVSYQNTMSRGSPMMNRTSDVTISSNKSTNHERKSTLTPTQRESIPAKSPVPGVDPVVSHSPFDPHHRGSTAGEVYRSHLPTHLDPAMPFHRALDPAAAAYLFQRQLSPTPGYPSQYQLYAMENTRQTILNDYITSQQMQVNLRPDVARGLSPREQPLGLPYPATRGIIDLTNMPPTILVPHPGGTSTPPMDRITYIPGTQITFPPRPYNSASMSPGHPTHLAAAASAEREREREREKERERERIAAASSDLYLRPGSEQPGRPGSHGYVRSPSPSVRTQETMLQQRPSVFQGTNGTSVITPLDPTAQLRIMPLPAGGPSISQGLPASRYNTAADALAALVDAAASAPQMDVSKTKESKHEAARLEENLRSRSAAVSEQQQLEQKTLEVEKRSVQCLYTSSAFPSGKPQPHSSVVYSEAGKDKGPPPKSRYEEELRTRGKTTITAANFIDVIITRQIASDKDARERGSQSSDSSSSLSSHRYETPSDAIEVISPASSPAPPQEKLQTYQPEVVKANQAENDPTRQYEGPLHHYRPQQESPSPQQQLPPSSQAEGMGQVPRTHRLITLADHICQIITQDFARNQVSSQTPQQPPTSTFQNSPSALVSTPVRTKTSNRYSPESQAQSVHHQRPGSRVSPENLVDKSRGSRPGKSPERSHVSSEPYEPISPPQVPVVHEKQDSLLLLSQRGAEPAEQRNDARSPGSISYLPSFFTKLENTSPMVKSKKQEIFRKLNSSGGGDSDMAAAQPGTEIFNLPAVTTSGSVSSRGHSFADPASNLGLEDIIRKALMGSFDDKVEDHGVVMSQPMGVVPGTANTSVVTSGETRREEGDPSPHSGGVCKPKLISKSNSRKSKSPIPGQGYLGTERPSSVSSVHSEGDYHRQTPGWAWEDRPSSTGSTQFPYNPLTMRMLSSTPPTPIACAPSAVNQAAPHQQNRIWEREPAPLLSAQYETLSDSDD
T3 sequence (P56524 whole entry): as the sequence (P56524 whole entry R681A/R798A) above, with A681R, A798R counted along it

Row | Compound | water solubility compared with TasQ (Water solubility) | competitive displacement of mutant HDAC4 from immobilized TasQ [1] | binding to immobilized fl-NCoR1 protein (fl-NCoR1) | effect on enzymatic activity of fl-HDAC4 (fl-HDAC4) | time to downregulation of the AHR protein [2] [h] | EC50 (CYP1A1) [nM]
1 | COc1cccc2c1c(O)c(C(=O)N(c1ccc(C(F)(F)F)cc1)C1CCCCC1)c(=O)n2C [ESATA-20] | less water soluble than TasQ | – | – | – | – | –
2 | COc1cccc2c1c(O)c(C(=O)N(C)c1ccc(C(F)(F)F)cc1)c(=O)n2C [TasQ, Tasquinimod] | – | not competitively displaced | no detectable binding | did not inhibit | 2 to 4 | 1000
